Where a name gives a salt, the structure may show the parent alone.
How the values were obtained:
[1] = system: K. pneumoniae expressing the Class A Extended Spectrum Beta-Lactamase (ESBL) CTX-M-15; experiment: In vitro antibacterial assay of β-lactamase inhibition (broth microdilution MIC), K. pneumoniae CTX-M-15; format: cell-based; details: in presence of Ceftazidime 8 μg/ml (Examples 1-56)
Source text: (§1) To determine the ability of test compounds to potentiate the inhibition of the growth of bacterial strains producing beta-lactamase enzymes, classic cell based screening assays were employed. Five bacteria strains producing beta-lactamase enzymes were used: K. pneumoniae expressing the Class A Extended Spectrum Beta-Lactamase (ESBL) CTX-M-15, E. coli expressing the Class A ESBL SHV-5, E. cloacae expressing the Class C P99+, K. pneumoniae expressing the Class A carbapenemase KPC-2, and P. aeruginosa expressing the Class B metallo β-lactamase VIM-2. In order to evaluate the ability of test compounds to inhibit beta-lactamase activity, Applicants used a modification of the broth microdilution assay. The assay was conducted in Cation Adjusted Mueller Hinton Broth (CAMHB, BD # 212322, BD Diagnostic Systems, Sparks, Md.). Bacteria strains were grown for 3-5 hours in CAMBH broth. All five strains were grown in presence of 50 μg/mL ampicillin to ensure resistance is maintained. In the meantime, test compounds were diluted in DMSO to a 0.1 mg/mL stock. The compounds were added to a microtiter plate and were diluted in 2-fold serial dilutions in CAMHB in a final concentration range of 8 μg/mL to 0.015 μg/ml. […] Each of these compound plates are made in quadruplicate, one for each bacteria strain. In addition to the titration of test compounds the MICs of a panel of cephalosporins is also tested to ensure the strains are behaving consistently from test to test. Once the test compound and cephalosporin are added the plates can be inoculated. Inocula are conducted according to CLSI broth microdilution method. After inoculation the plates are incubated for 16-20 hours at 37° C. then the Minimal Inhibitory Concentration (MIC) of the test compound is determined visually.
(§2) Using the methodology described above, examples of the current invention were evaluated for their ability to inhibit the growth of β-lactamase producing bacteria in the presence of a β-lactam antibiotic.

[2] = target: T1, p99 AmpC β-lactamase (Enterobacter cloacae, UniProt P05364); experiment: β-lactamase enzyme inhibition assay (nitrocefin substrate), P99 AmpC; format: biochemical; details: nitrocefin 100 μM, 37° C., PBS pH 7.0; read-out: P99 AmpC IC50
T1 construct: expressed as native untagged proteins; made in house; host or cells: E. coli BL21(DE3)
Description: (§3) Isolation of β-lactamases. For SHV-5, p99 AmpC, KPC-2 and CTX-M15 β-lactamases, E. coli BL21(DE3) bacterial cells carrying expression plasmids (expressed as native untagged proteins) for the individual β-lactamases were grown in 1 L of Superbroth (Teknova Inc. Hollister, Calif.) supplemented with 100 μg/ml kanamycin and 1×5052 (0.5% glycerol, 0.05% glucose and 0.2% α-lactose) at 35° C. for 18-20 hours. Cells were harvested by centrifugation (4,000×g, 4° C., 20 min), and resuspended in 50 ml of 10 mM HEPES pH 7.5 (1/20 of the initial volume). The cells were lysed by sonication (5 pulses of 45 seconds) at 45 W on ice. The lysates were clarified by centrifugation at 10,000×g for 40 minutes at 4° C. Samples were diluted 5-fold in 50 mM sodium acetate pH 5.0, stored overnight at 4° C., after which they were centrifuged at 10,000×g for 30 minutes to clarify, and filtered through 0.45 μm filters. The samples were loaded onto a 5 ml Capto S sepharose cation exchange column (GE Healthcare) pre-equilibrated with 50 mM sodium acetate pH 5.0. The column was washed with 5 column volumes of 50 mM sodium acetate pH 5.0 to wash out unbound protein and a linear gradient of NaCl (0 to 500 mM) was used to elute the protein (over 16 CV) from the column. Fractions were assayed for β-lactamase activity using Centa (Calbiochem, Gibbstown, N.J.) as a reporter β-lactamase substrate for activity in the isolated fractions. Active fractions were pooled, concentrated and further purified by gel filtration chromatography on a Superdex 75 prep grade gel filtration column (GE Healthcare, Piscataway, N.J.) pre-equilibrated in 50 mM Hepes pH 7.5, 150 mM NaCl. Active fractions were pooled concentrated, quantitated by BCA protein determination (Thermo Scientific, Rockford, Ill.), and frozen at −80° C. in 20% glycerol until use.
(§4) β-lactamase Inhibition. To determine the level of inhibition of β-lactamase enzymes, compounds were diluted in PBS at pH 7.0 to yield concentrations between 100 and 0.005 μM in microtiter plates. An equal volume of diluted enzyme stock was added, and the plates were incubated at 37° C. for 10 min. Nitrocefin solution was then dispensed as substrate into each well at a final concentration of 100 μM, and the plates were immediately read with the kinetic program at 486 nm for 10 min on the SPECTRAMAX® Plus^384 (high-throughput microplate spectrophotometer; Molecular Devices Corp., Sunnyvale, Calif.). Maximum rates of metabolism were then compared to those in control wells (without inhibitors), and percentages of enzyme inhibition were calculated for each concentration of inhibitor. The concentration of inhibitor needed to reduce the initial rate of hydrolysis of substrate by 50% (IC50) was calculated as the residual activity of β-lactamase at 486 nm using the SoftMax Pro 5.0 software (Molecular Devices Corp.).
(§5) Using the methodology described above, examples of the current invention were evaluated for their ability to inhibit β-lactamase enzymes. The results of these assays are summarized in Table 2 for representative enzymes across different subtypes (note SHV-5 and CTXM-15 exemplify different subclasses of Ambler Class A Extended Spectrum Beta Lactamases, KPC-2 exemplifies Class A carbapenemases, P99 represents chromosomal Class C AmpC, VIM-2 exemplifies subclass B1 of metallo-β-lactamases, and OXA-23 represents chromosome-encoded Class D oxacillin-hydrolyzing β-lactamases), NT=not tested.

[3] = target: T2, SHV-5 β-lactamase (Klebsiella pneumoniae, UniProt P0A3M1); experiment: β-lactamase enzyme inhibition assay (nitrocefin substrate), SHV-5; format: biochemical
T2 construct: expressed as native untagged proteins; made in house; host or cells: E. coli BL21(DE3)
Description: as §3, §4, §5

[4] = system: P. aeruginosa expressing the Class B metallo β-lactamase VIM-2; experiment: In vitro antibacterial assay of β-lactamase inhibition (broth microdilution MIC), P. aeruginosa VIM-2; format: cell-based; details: in presence of Ceftazidime 16 μg/mL (Examples 1-56)
Source text: as §1, §2

[5] = system: E. cloacae expressing the Class C P99+; experiment: In vitro antibacterial assay of β-lactamase inhibition (broth microdilution MIC), E. cloacae P99+; format: cell-based; details: in presence of Ceftazidime 8 μg/ml (Examples 1-56)
Source text: as §1, §2

[6] = target: T3, KPC-2 β-lactamase (Klebsiella pneumoniae, UniProt Q9F663); experiment: β-lactamase enzyme inhibition assay (nitrocefin substrate), KPC-2; format: biochemical
T3 construct: expressed as native untagged proteins; made in house; host or cells: E. coli BL21(DE3)
Description: as §3, §4, §5

[7] = system: K. pneumoniae expressing the Class A carbapenemase KPC-2; experiment: microbe, parasite or virus in culture; format: cell-based; details: in presence of Ceftazidime 8 μg/ml (Examples 1-56)
Source text: as §1, §2

[8] = system: E. coli expressing the Class A ESBL SHV-5; experiment: In vitro antibacterial assay of β-lactamase inhibition (broth microdilution MIC), E. coli SHV-5; format: cell-based; details: in presence of Ceftazidime 8 μg/ml (Examples 1-56)
Source text: as §1, §2

[9] = target: T4, CTX-M15 β-lactamase (Escherichia coli, UniProt Q9EXV5); experiment: β-lactamase enzyme inhibition assay (nitrocefin substrate), CTXM-15; format: biochemical
T4 construct: expressed as native untagged proteins; made in house; host or cells: E. coli BL21(DE3)
Description: as §3, §4, §5

T3 sequence (Q9F663 25-293 limits assumed): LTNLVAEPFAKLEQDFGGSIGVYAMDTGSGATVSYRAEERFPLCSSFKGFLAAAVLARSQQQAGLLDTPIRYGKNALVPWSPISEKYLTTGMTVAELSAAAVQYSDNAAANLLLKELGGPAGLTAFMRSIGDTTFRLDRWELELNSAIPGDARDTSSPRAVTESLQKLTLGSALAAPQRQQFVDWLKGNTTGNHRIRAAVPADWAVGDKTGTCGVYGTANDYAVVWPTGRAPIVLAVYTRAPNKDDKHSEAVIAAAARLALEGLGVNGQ
T1 sequence (P05364 21-381): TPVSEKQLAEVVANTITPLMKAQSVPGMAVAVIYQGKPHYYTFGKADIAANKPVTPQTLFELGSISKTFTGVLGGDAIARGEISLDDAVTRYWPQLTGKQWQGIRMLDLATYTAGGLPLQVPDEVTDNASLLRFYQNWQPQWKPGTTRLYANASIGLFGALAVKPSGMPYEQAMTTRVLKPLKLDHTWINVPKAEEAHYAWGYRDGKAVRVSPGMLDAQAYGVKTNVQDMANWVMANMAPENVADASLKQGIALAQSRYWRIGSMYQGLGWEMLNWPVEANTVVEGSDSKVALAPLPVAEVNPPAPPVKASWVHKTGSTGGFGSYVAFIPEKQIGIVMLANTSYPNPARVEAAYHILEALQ
T2 sequence (P0A3M1 22-286): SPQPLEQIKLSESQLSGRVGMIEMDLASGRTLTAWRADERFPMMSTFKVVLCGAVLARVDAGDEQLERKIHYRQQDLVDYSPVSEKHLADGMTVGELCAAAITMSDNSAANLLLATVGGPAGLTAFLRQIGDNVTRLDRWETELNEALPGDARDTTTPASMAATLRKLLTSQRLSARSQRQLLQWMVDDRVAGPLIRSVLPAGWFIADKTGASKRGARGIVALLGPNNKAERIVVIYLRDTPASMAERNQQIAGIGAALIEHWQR
T4 sequence (Q9EXV5 entry or part of it): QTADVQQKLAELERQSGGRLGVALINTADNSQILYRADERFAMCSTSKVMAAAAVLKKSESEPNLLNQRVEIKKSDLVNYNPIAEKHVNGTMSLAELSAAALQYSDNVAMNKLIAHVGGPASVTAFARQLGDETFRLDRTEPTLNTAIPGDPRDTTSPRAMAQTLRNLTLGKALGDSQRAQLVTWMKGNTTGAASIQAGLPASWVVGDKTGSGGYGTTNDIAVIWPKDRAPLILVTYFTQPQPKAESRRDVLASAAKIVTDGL

| SMILES | MIC of example compound, K. pneumoniae CTX-M-15 [1] | IC50 [2] | IC50 [3] | MIC of example compound, P. aeruginosa VIM-2 [4] | MIC of example compound, E. cloacae P99+ [5] | IC50 [6] | MIC of example compound, K. pneumoniae KPC-2 [7] | MIC of example compound, E. coli SHV-5 [8] | IC50 [9] |
| --- | --- | --- | --- | --- | --- | --- | --- | --- | --- |
| Cl.O=C(N[C@@H](Cc1cccc(C(=O)O)c1O)B(O)O)c1ccc(CNCCO)cc1 [Example 16, (1R)-[4-(2-hydroxy-ethylamino)-methyl]-benzoylamino-(3-carboxy-2-hydroxy)benzyl-methyl boronic acid hydrochloride] | 1 µg/mL | 6 nM | > 1000 nM | 4 µg/mL | 0.25 µg/mL | 5 nM | 0.03 µg/mL | 8 µg/mL | 5 nM |
| O=C(N[C@@H](Cc1cccc(C(=O)O)c1O)B(O)O)c1cccc(CN(CCO)CCO)c1 [Example 23, (1R)-(3-{[bis-(2-hydroxy-ethyl)-amino]-methyl}-benzoylamino)-(3-carboxy-2-hydroxy)benzyl-methylboronic acid formate] | 1 µg/mL | 0.9 nM | 17 nM | >8 µg/mL | 2 µg/mL | 8.1 nM | 0.12 µg/mL | 8 µg/mL | 2 nM |
| CC(=O)N(CCN)Cc1cccc(C(=O)N[C@@H](Cc2cccc(C(=O)O)c2O)B(O)O)c1 [Example 24, (1R)-(3-{[acetyl-(2-amino-ethyl)-amino]-methyl}-benzoylamino)-(3-carboxy-2-hydroxy)benzyl-methylboronic acid formate] | 1 µg/mL | 2 nM | 350 nM | >8 µg/mL | 1 µg/mL | 18 nM | 0.12 µg/mL | 8 µg/mL | 4 nM |
| O=C(N[C@@H](Cc1cccc(C(=O)O)c1O)B(O)O)c1cccc(CNCCCO)c1 [Example 25, (1R)-[3-{(3-hydroxy-propylamino)-methyl}-benzoylamino]-(3-carboxy-2hydroxy)benzyl-methylboronic acid formate] | 1 µg/mL | 0.9 nM | 580 nM | >8 µg/mL | 0.5 µg/mL | 20 nM | 0.03 µg/mL | 8 µg/mL | 3 nM |
| O=C(N[C@@H](Cc1cccc(C(=O)O)c1O)B(O)O)c1cccc(CNc2cccnc2)c1 [Example 26, (1R)-[3-(pyridin-3-ylaminomethyl)-benzoylamino]-(3-carboxy-2hydroxy)benzyl-methylboronic acid formate] | 4 µg/mL | 0.4 nM | 94 nM | >8 µg/mL | 2 µg/mL | 11 nM | 0.5 µg/mL | >8 µg/mL | 1 nM |
| CN(C)Cc1cccc(C(=O)N[C@@H](Cc2cccc(C(=O)O)c2O)B(O)O)c1 [Example 27, (1R)-(3-dimethylaminomethyl-benzoylamino)-(3-carboxy-2-hydroxy)benzyl-methylboronic acid formate] | 1 µg/mL | 1.4 nM | 312 nM | >8 µg/mL | 0.5 µg/mL | 14 nM | 0.03 µg/mL | >8 µg/mL | 3 nM |
| CC(C)(O/N=C(\C(=O)N[C@@H](Cc1cccc(C(=O)O)c1O)B(O)O)c1csc(NC(=O)CN)n1)C(=O)O.Cl [Example 50, 3-{2(R)-[2-[2-(2-amino-acetylamino)-thiazol-4-yl]-2(Z)-(1-carboxy-1-methyl-ethoxyimino)-acetylamino]-2-borono-ethyl}-2-hydroxy-benzoic acid hydrochloride] | >8 µg/mL | 23 nM | 24 nM | >8 µg/mL | >8 µg/mL | 158 nM | >8 µg/mL | >8 µg/mL | 34 nM |
